Measurements published in patent publication US20090186361A1, “METHODS OF PREDICTING THE PHARMACEUTICAL TOXICITY OF TAXANES” (priority 2008, published 2009).

Tests used:
CYP3A5 = test: Regression of Toxicity Index on CYP3A5 SNP genotype of recipient subjects; assay type: in vivo, human; conditions: for Para. Est., TI5 vs CYP3A5_3A (multivariable): multivariable analysis best model; for Para. Est., TI5 vs CYP3A5_3A (multivariable) / Para. Est., TI5 vs CYP3A5_3A1 / Para. Est., TI5 vs CYP3A5_3A: cycle 5
Text: The GENOMELAB SNPSTREAM™ (Beckman) was utilized to accommodate up to 92,000 genotypes per day. This automated, multiplexed system can process up to 48 SNPs in each well of an arrayed 384-well plate. The SNPSTREAM™ operates at a consistent cost per genotype or per sample, regardless of run throughput, allowing users to cost-effectively zero in on targets with low-throughput studies as well as conduct high-throughput analyses.
The SNPSTREAM™ Genotyping System features a protocol with three steps. The technology is based on single-based primer extension technology. The system's high sensitivity delivers results using as little as 2 ng of genomic DNA. SNPWARE™ reagent kits were used. The kits included ready-to-use reagents, all performed in the original PCR plate according to the manufacturer's instructions, and incorporated herein by reference in its entirety.
Multiplexed reactions were spatially resolved on a SNPWARE™ Tag Array plate. Each of the 384 wells in a plate contained 16 or 52 unique oligonucleotides of a known sequence, or tag. Each tag on the plate was complementary to one of the tags of the 12 or 48 extension primers, plus four controls to ensure accuracy. After transfer to the Tag Array plate, each SNP was hybridized to its complementary tag. SNPs were then identified by their position in the well.
The process involved a multiplex PCR followed by an annealing reaction of the oligonucleotide to the specific PCR product. Next the oligonucleotide was extended by a single base which was fluorescently labeled with a terminating NTP and finally detected by two-colored fluorescence specific for the allele.
For each SNP, the -PCRU and -PCRL primers were first used to amplify a relevant DNA fragment surrounding the target SNP site. The components per reaction were: H2O, 3.0 μl; 10× PCR Buffer II, 0.5 μl; MgCl2 (25 mM), 1.0 μl; dNTPs (2.5 mM each), 0.18 μl; PCR Primer Pool (2.5 μM each), 0.1 μl; AMPLITAQ GOLD™ (5 U/μl), 0.125 μl for a total volume of 5.0 μl per reaction.
Primer -SNPU or SNPL was then used for single-base extension reaction. The thermocycler program was as follows: Step 1: 96° C. for 3 min; Step 2: 94° C. for 20 sec; Step 3: 40° C. for 11 sec; and Step 5: return to step 2 59 times, and finally to hold at 4° C.
(§1) A preliminary data analysis focused on the relationship between the Toxicity Index and the recipient subjects' demographic/genetic information. […] Univariate linear regression analysis was conducted first to find significant covariates in predicting the Toxicity Index in one of five cycles, then multivariable analysis was used to determine the best model in fitting the data. A mixed model for repeated measurement was implemented in modeling Toxicity Index in the first five cycles, and also in all cycles. Autoregressive covariance structure was used in the mixed model. SAS and Minitab were used in the analysis.
Covariates in the analysis included recoded binary demographic variables (sex, race, site, grade, stage) and recoded binary genetic variables.
Multivariable regression analysis was used to find the best model in predicting the Toxicity Index in each of the first five cycles.

[1] = Toxicity Index (TI) computed from graded treatment-attributable adverse events (NCI CTC) of recipient subjects, per treatment cycle; assay type: in vivo, human; set-up: key to Toxicity Index TI9 Mean / Toxicity Index TI12 Mean / Toxicity Index TI13 Mean / Toxicity Index TI16 Mean / Toxicity Index TI17 Mean / Toxicity Index TI19 Mean / Toxicity Index TI1 Mean / Toxicity Index TI2 Mean / Toxicity Index TI4 Mean: weighted sum of ordered recoded CTC grades; ≥3 = DLT; conditions: mean over recipient subjects; for Toxicity Index TI1 Mean: cycle 1, score between 0 and 5; for Toxicity Index TI2 Mean: cycle 2; for Toxicity Index TI3 Mean: cycle 3; for Toxicity Index TI4 Mean: cycle 4; for Toxicity Index TI5 Mean: cycle 5; for Toxicity Index TI6 Mean: cycle 6; for Toxicity Index TI7 Mean: cycle 7; for Toxicity Index TI8 Mean: cycle 8; for Toxicity Index TI9 Mean: cycle 9; for Toxicity Index TI10 Mean: cycle 10; for Toxicity Index TI11 Mean: cycle 11; for Toxicity Index TI12 Mean: cycle 12; for Toxicity Index TI13 Mean: cycle 13; for Toxicity Index TI14 Mean: cycle 14; for Toxicity Index TI15 Mean: cycle 15; for Toxicity Index TI16 Mean: cycle 16; for Toxicity Index TI17 Mean: cycle 17; for Toxicity Index TI18 Mean: cycle 18; for Toxicity Index TI19 Mean: cycle 19; for Toxicity Index TI20 Mean: cycle 20; for Toxicity Index TI21 Mean: cycle 21
Text: Recipient subject-specific characteristics, medical and treatment histories, doses of experimental agents, and graded toxicities were extracted from case report forms. Toxicity data were represented for each subject as a set of treatment-attributable adverse events, each graded (0, 1, 2, 3, or 4) according to NCI Common Toxicity Criteria (CTC). The term “toxicity profile” as used herein refers to the collection of graded toxicities observed for an individual recipient subject.
To include all trials in the same analysis, a common definition of dose limiting toxicity (DLT) was adopted. Specifically, DLT was defined as occurring whenever any one of the following was observed: grade 4 hematological toxicity (grade 4 neutropenia or thrombocytopenia of any duration); a grade 3 or 4 non-hematological toxicity (excluding nausea, vomiting, and alopecia); febrile neutropenia of any grade.
To identify risk factors and other pre-trial characteristics of interest, several ways of summarizing the toxicity profile of a given recipient subject into a single measure of overall severity were examined as described, for example in Rogatko et al., (2004) Clin. Cancer Res. 10:4645-4651, incorporated herein by reference in its entirety. A summary measure that takes into account all observed toxicity grades rather than just the most severe one was used. The summary measure, the Toxicity Index (TI), is computed according to the following algorithm: • (a) recode each hematologic toxicity as the maximum of 0 and the observed grade minus one (so that a grade 3 toxicity is dose limiting irrespective of whether or not it is hematologic). • (b) Let the toxicity grades in a subject's recoded toxicity profile be represented in descending order by the sequence X1≧X2≧ . . . ≧Xn • (c) Calculate the subject's TI score as the weighted sum of the ordered toxicity grades:
Any score greater than or equal to 3 corresponds to a DLT according to the definition given above, and the maximum toxicity grade is the integer part of the final score. […] All toxicity grades are taken into account, though lower grades will contribute less to the final score.
The score is a number between 0 and 5.
Thirty (30) recipient subjects already receiving treatment with paclitaxel were screened for the presence of SNPs in the CYP2C8 and TUBB loci. Clinical data from each of the recipient subjects was used to first calculate a Toxicity Index (TI) value for each individual according to the method presented in Example 1, above. The genotype for each recipient subject with regard to the SNPs of CYP2C8 and TUBB was determined using SNPWARE™ and single base extension according to the methods of Example 4, above.
as §1

| Structure (SMILES) | Toxicity Index TI1 Mean [1] | Toxicity Index TI2 Mean [1] | Toxicity Index TI3 Mean [1] | Toxicity Index TI4 Mean [1] | Toxicity Index TI5 Mean [1] | Toxicity Index TI6 Mean [1] | Toxicity Index TI7 Mean [1] | Toxicity Index TI8 Mean [1] | Toxicity Index TI9 Mean [1] | Toxicity Index TI10 Mean [1] | Toxicity Index TI11 Mean [1] | Toxicity Index TI12 Mean [1] | Toxicity Index TI13 Mean [1] | Toxicity Index TI14 Mean [1] | Toxicity Index TI15 Mean [1] | Toxicity Index TI16 Mean [1] | Toxicity Index TI17 Mean [1] | Toxicity Index TI18 Mean [1] | Toxicity Index TI19 Mean [1] | Toxicity Index TI20 Mean [1] | other results |
| --- | --- | --- | --- | --- | --- | --- | --- | --- | --- | --- | --- | --- | --- | --- | --- | --- | --- | --- | --- | --- | --- |
| CC(=O)O[C@@]12CO[C@@H]1C[C@H](O)[C@@]1(C)C(=O)[C@H](O)C3=C(C)[C@@H](OC(=O)[C@H](O)[C@@H](NC(=O)OC(C)(C)C)c4ccccc4)C[C@@](O)([C@@H](OC(=O)c4ccccc4)[C@H]21)C3(C)C (relative stereo) [Docetaxel, Benzenepropanoic acid, β-(((1,1-dimethylethoxy)carbonyl)amino)-α-hydroxy-, 12b-(acetyloxy)-12-(benzoyloxy)-2a,3,4,4a,5,6,9,10,11,12,12a,12b-dodecahydro-4,6,11-trihydroxy-4a,8,13,13-tetramethyl-5-oxo-7,11-methano-1H-cyclodeca(3,4)benz(1,2-b)oxet-9-yl ester trihydrate, (2aR-(2aα,4β,4aβ,6β,9(αR*,βS),11α,12α,12aα,12bα))-] | 2.727 | 2.840 | 2.737 | 3.058 | 2.669 | 2.875 | 2.646 | 2.804 | 2.438 | 2.623 | 2.297 | 2.090 | 2.404 | 2.171 | 2.083 | 1.875 | 1.875 | 1.875 | 2.625 | 1.875 | Para. Est., TI5 vs CYP3A5_3A (multivariable) (CYP3A5; rs776746, AG = 1, GG/AA = 0, P-value 0.024): −1.739; Para. Est., TI4 vs CYP3A5_3A1 (CYP3A5; univariate linear regression, cycle 4, rs15524, TC = 1, CC/TT = 0, P-value 0.045): −1.079; Para. Est., TI4 vs CYP3A5_3A (CYP3A5; univariate linear regression, cycle 4, rs776746, AG = 1, GG/AA = 0, P-value 0.045): −1.079; Para. Est., TI5 vs CYP3A5_3A1 (CYP3A5; univariate linear regression, rs15524, TC = 1, CC/TT = 0, P-value 0.024): −1.739; Para. Est., TI5 vs CYP3A5_3A (CYP3A5; univariate linear regression, rs776746, AG = 1, GG/AA = 0, P-value 0.024): −1.739; Toxicity Index TI21 Mean [1]: 1.875 |
| CC(=O)O[C@H]1C(=O)[C@@]2(C)[C@H]([C@H](OC(=O)c3ccccc3)[C@]3(O)C[C@H](OC(=O)[C@H](O)[C@@H](NC(=O)c4ccccc4)c4ccccc4)C(C)=C1C3(C)C)[C@]1(OC(C)=O)CO[C@@H]1C[C@@H]2O [Paclitaxel, (2aR,4S,4aS,6R,9S,11S,12S,12aR,12bS)-1,2a,3,4,4a,6,9,10,11,12,12a,12b-Dodecahydro-4,6,9,11,12,12b-hexahydroxy-4a,8,13,13-tetramethyl-7,11-methano-5H-cyclodeca(3,4)benz(1,2-b)oxet-5-one 6,12b-diacetate, 12-benzoate, 9-ester with (2R,3S)-N-benzoyl-3-phenylisoserine] | 2.175 | 2.399 | 2.491 | 2.787 | 2.696 | 2.580 | 2.529 | 2.206 | 2.292 | 1.875 | 2.583 | 1.750 | 1.875 | 1.875 | 1.875 | 2.583 | 2.583 | 2.583 | 2.583 | 2.944 | Para. Est., TI5 vs CYP3A5_3A (multivariable) (CYP3A5; rs776746, GG = 1, AG = 0, P-value 0.022): 1.477; Para. Est., TI5 vs CYP3A5_3A1 (CYP3A5; univariate linear regression, rs15524, TT = 1, TC = 0, P-value 0.022): 1.477; Para. Est., TI5 vs CYP3A5_3A (CYP3A5; univariate linear regression, rs776746, GG = 1, AG = 0, P-value 0.022): 1.477; Toxicity Index TI21 Mean [1]: 3.469 |
